In patent US4855290A (priority 1985, dated 1989):
Values joined by “and” are separate entries in the source; they are usually repeats but may differ in a detail not shown here. Equal entries are not always repeated. “Also recorded” adds a separate entry of the source. Where two headings read alike, the source gives them in different places.

Legend:
[1] = target: central muscarinic receptors (M1 and M2); format: binding, rat
in vivo [2] = conditions: mouse, po
[3] = Signs observed in rats after oral dose of 100 mg./kg.; format: in vivo; conditions: 100 mg./kg. oral
in vivo [4] = conditions: mouse, iv
Guinea-pig ileum [5] = test: Guinea-pig ileum induced contractions; conditions: for Type of activity: guinea-pig ileum; for IC50: inhibiting acetylcholine-induced contractions of the ileum
Source text: Guinea-pig ileum induced contractions
*This dose is the IC50 for inhibiting acetylcholineinduced
contractions of the ileum.

Guinea-pig ileum [6] = test: Guinea-pig ileum induced contractions; conditions: ileum contraction
[7] = not given; remark: listed apart in the source
[8] = target: central muscarinic receptors (M1) (Rattus norvegicus, UniProt P08482); test: biochemical; format: binding; parameters: IC50^1 :IC50^2: unit not given beside the values
[9] = Hypothermia-inducing activity in rats; conditions: AF102B at 80 mg./kg. p.o. and 60 mg./kg. i.p., oxotremorine 3.2 mg./kg. p.o. or 1.2 mg./kg. i.p.
[10] = Morris Swimming Maze in AF64A- and CSF-injected rats; format: in vivo, male Sprague Dawley rats; conditions: AF102B 1 mg./kg., ip, physostigmine 0.1 mg./kg.
Description: 38 male Sprague Dawley rats (raised by Charles River) 5-6 months old with an average weight of 500 g. were used. The rats were housed in groups of 5 and were given free access to food and water. Testing was carried out in a round white metal tub 1.4 m. diameter and 0.4 m. deep. The tub was filled with water, made opaque by milk powder to the level of 18 cm. A platform of 12 cm. diameter and at a height of 16 cm. was placed in the tub 2 cm. below water level. The platform was covered with gauze to prevent the animal from slipping back into the water after reaching the platform.
Prior to testing, the rat was placed on the platform for 120 secs., placed gently into the water, facing the wall of the pool, at one of four starting locations (north, south, east or west) around the pool's perimeter. Within each block of four trials, each rat was started at each of the four starting locations, with the sequence of starting locations randomly selected. Testing was carried out on 2 consecutive days with each rat submitted daily to eight trials. During trials 1-12 the platform was located in the center of the south-east quadrant and during trials 13-16 the platform was transferred to the center of the north-west quadrant. If in a particular trial the rat found the platform, it was permitted to remain on it for 60 secs. before starting the next trial. […] The latency to find the platform was measured.
For drug testing, rats were injected with AF64A or CSF (3 nmole/2 ul/side) as described in Experiment 2, above. The rats were subjected first to a step-through learning procedure (see Experiment 1, above) and were 3-3.5 months after injection when tested in the water maze. The rats were divided into 4 groups; 18 CSF-injected rats were treated either with physostigmine (0.1 mg./kg. ip) (10 rats) or with saline (8 rats). 20 AF64A-injected rats were divided similarly. The rats were injected with physostigmine immediately before testing on each day.
Forty male Sprague-Dawley rats (obtained from Charles River Breeding Laboratories U.K.), 5-6 months old, weighing 450-580 g. during the experiment served as subjects. Rats were housed in groups of 5 and were given free access to food and water. 2.5-3.5 months before behavioral testing, rats were injected with AF64A (3 nmole/2 ul/side) (20 rats-group 1) or CSF (20 rats-group 2) as described in the surgery procedure.
Each of the injected groups was randomly subdivided into two equal size treatment groups.

[11] = parameters: species or system Male Sprague-Dawley rats; conditions: rat, in vivo
[12] = LD50 of physostigmine (relative toxicity in rats); conditions: rat, in vivo, ip

central muscarinic receptors (M1), sequence (P08482 whole entry): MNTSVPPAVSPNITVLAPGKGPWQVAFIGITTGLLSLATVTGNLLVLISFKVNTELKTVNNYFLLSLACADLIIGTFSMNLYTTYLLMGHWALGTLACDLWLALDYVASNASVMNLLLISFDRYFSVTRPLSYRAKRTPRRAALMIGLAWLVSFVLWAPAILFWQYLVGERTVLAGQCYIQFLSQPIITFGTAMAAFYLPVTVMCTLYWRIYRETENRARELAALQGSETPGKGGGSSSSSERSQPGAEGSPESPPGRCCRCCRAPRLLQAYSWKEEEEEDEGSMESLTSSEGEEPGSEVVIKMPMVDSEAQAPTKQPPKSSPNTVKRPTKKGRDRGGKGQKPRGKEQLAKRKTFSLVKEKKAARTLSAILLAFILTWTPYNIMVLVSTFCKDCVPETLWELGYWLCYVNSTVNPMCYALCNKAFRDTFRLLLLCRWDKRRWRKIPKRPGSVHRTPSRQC

In the case of `C[C@@H]1O[C@]2(CS1)CN1CCC2CC1` (relative stereo) [AF102A], the IC50 ([1]; read-out: IC50^2 for displacement of [^3 H]-QNB) is reported as 70000 nM, the LD50 (in vivo [2]) is reported as 102 mg/kg and the “Signs observed in rats” value [3] is reported as “spontaneous motor activity was slightly reduced; also recorded: mydriasis, with pupillary size being about three times that seen in controls; also recorded: sudden onset of a brief clonic convulsive seizure which 5 mins. later changed into periodic head twitching and tremors; also recorded: animals appeared somnolent, accompanied by partial loss of righting reflex, dyspnoeic and cyanotic, with very slight salivation and lachrymation; also recorded: full recovery occurred after several hours”. For the same compound, the mortality in rats [3] was “one animal, out of the group of three, which was found dead”, the time found dead ([3]; post-administration) was 40 min and the LD50 (in vivo [4]) was 40.4 mg/kg. For the same compound, the “muscarinic agonist activity (TABLES 1 and 2)” value (Guinea-pig ileum [5]; binding and ileum) was “almost one order of magnitude less active”, the Type of activity (Guinea-pig ileum [5]) was “agonist” and the Mortality (mice, 78 mg./kg. per os) was 0/5. The Mortality (mice, 90 mg./kg. per os) was 2/5, the Mortality (mice, 104 mg./kg. per os) was 2/5 and the Mortality (mice, 120 mg./kg. per os) was 4/5. The Mortality (mice, 139 mg./kg. per os) was 5/5, the Mortality (mice, 160 mg./kg. per os) was 5/5 and the “time of death after oral administration” value (mice, approximate LD50 doses, oral) was 10 to 15 min. The “absorption by the enteric route” value (mice, inferred from i.v./oral LD50 ratio) was “efficient, rapid and apparently unaltered absorption”, the “effects considered characteristic of parasympatho- or cholinomimetic activity” value (mouse, in vivo) was “none of the test animals exhibited effects considered characteristic of parasympatho- or cholinomimetic activity” and the “onset of severe tremors after oral administration” value (mouse, in vivo, po) was 2 to 3 min. The EC50 (Guinea-pig ileum [6]) was over 10000 nM, the Mortality ([7]; mice, 36.0 mg./kg. i.v.) was 2/6 and the Mortality ([7]; mice, 37.9 mg./kg. i.v.) was 3/6. The Mortality ([7]; mice, 40.0 mg./kg. i.v.) was 2/6, the Mortality ([7]; mice, 42.5 mg./kg. i.v.) was 4/6 and the Mortality ([7]; mice, 45.0 mg./kg. i.v.) was 6/6. For the same compound, the “time of death after intravenous injection” value ([7]; mice, approximate LD50 doses, iv) was “about 30 secs”, the “onset of severe tremors after intravenous administration” value ([7]; mouse, in vivo, iv) was 10 s and the IC50 [8] was 30000 nM. The “IC50^1 :IC50^2” value ([8]; PNZ:QNB displacement ratio) was 0.43.
In the case of `CC1(c2ccccc2)OC2(CS1)CN1CCC2CC1` (stereo not drawn) [(Ic), 2-methyl-2-phenylspiro(1,3-oxathiolane-5,3')quinuclidine], the Type of activity (Guinea-pig ileum [5]) is reported as “antagonist” and the IC50 (Guinea-pig ileum [5]) is reported as 2000 nM.
With `C[C@@H]1OCC2(CN3CCC2CC3)O1` (stereo in doubt) [AF30, cis-2-methylspiro(1,3-dioxolane-4,3')quinuclidine, reference compound] the Type of activity (Guinea-pig ileum [5]) was “agonist”, the “effects considered characteristic of parasympatho- or cholinomimetic activity” value (mice, oral or iv, tremors, salivation, lachrymation, diarrhoea, miosis) was “did exhibit such side effects” and the EC50 (Guinea-pig ileum [6]) was 4000 nM.
In the case of `O=C1CCCN1CC#CCN1CCCC1` [oxotremorine, reference compound], the EC50 ([1]; summary table, read-out: EC50, [^3 H]--QNB-binding) is reported as 3000 nM, the cholinomimetic manifestation [9] is reported as “full cholinomimetic syndrome associated with tonic-clonic convulsions” and the EC50 [8] is reported as 800 nM. The IC50 [8] was 800 nM and the “IC50^1 :IC50^2” value [8] was 0.27.
For `c1ccc(C(c2ccccc2)C2OC3(CS2)CN2CCC3CC2)cc1` (stereo not drawn) [(Ib), 2-diphenylmethylspiro(1,3-oxathiolane-5,3')quinuclidine], the Type of activity (Guinea-pig ileum [5]) was “antagonist” and the IC50 (Guinea-pig ileum [5]) was 20 nM.
In the case of `CNC(=O)Oc1ccc2c(c1)[C@]1(C)CCN(C)[C@@H]1N2C` [physostigmine, reference compound], the “effect in Morris Swimming Maze” value [10] is reported as “negative effect; also recorded: inhibited the decrease of the escape-latency curve”, the “effect in Morris Swimming Maze” value ([10]; listed as Physostigmine) is reported as “worsens; also recorded: apparently impaired the performance of both AF64A and CSF-injected groups” and the Initial-test latency [11] is reported as 25.50 ± 5.68 s and 29.70 ± 7.93 s. For the same compound, the “reversal of AF64A-induced memory impairments in passive avoidance” value [11] was “could be reversed”, the Retention-test latency ([11]; ip) was 458.90 ± 63.33 s and 576.10 ± 22.69 s and the Therapeutic index ([11]; ip) was 5-17 and 10-17. The “retention of passive avoidance (statistics)” value ([11]; ip) was “significantly longer, F(1,36)=5.91, p=0.05; also recorded: significantly improved; also recorded: the retention of the CSF-injected group was not affected” and the LD50 [12] was 1 to 2 mg/kg.
